According to patent US9000007B2, “5-benzylaminomethyl-6-aminopyrazolo [3, 4 -B] pyridine derivatives as cholesteryl ester-transfer protein (CETP) inhibitors useful for the treatment of atherosclerosis” (Dr. Reddy's Laboratories, Ltd., priority 2011, dated 2015):
pIC50: −log10 of the molar value.

molecular target: T1, recombinant CETP enzyme (rCETP) (Homo sapiens, UniProt P11597); test: In vitro CETP inhibition assay, fluorometric kit (ROAR Biomedicals); type: biochemical; conditions: rCETP 50 ng, 37° C. for 90 minutes, fluorescence Ex 492 nm / Em 516 nm
T1 construct: purchased ROAR Biomedicals, USA
T1 sequence (P11597 18-493): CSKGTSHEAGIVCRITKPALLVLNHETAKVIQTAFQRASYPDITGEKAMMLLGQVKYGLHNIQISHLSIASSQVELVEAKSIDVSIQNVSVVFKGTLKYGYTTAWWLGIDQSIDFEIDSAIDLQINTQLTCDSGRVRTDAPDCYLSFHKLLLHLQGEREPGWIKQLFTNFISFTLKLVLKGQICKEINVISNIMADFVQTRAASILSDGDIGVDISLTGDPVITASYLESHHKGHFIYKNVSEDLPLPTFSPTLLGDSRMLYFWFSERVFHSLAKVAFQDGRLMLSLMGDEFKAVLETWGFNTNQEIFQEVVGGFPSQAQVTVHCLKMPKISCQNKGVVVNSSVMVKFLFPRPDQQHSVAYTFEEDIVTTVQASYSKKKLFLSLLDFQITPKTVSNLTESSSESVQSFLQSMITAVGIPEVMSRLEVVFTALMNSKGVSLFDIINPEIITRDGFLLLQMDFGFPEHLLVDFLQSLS
Text: Determination of in Vitro CETP Activity Using Fluorometric Technique
An in vitro cholesteryl ester transfer protein inhibition (CETP) assay using a commercially available fluorometric assay kit from ROAR Biomedicals, USA was used to measure the CETP inhibition activity of the compounds of this application. This assay kit uses a donor molecule containing a fluorescent self-quenched neutral lipid that is transferred to an acceptor molecule in the presence of recombinant CETP enzyme (rCETP). The CETP-mediated transfer of the fluorescent neutral lipid to the acceptor molecule results in an increase in fluorescence (Excitation: 492 nm; Emission: 516 nm).
20 mM stock solutions of compounds were prepared in 100% DMSO and further dilutions were made such that the final concentration of DMSO in the reaction mix was 1%. […] The assay was performed in 96 well microplates and in each well, the reaction mixture contained 190 μl of assay buffer (150 mM NaCl, 10 mM Tris and 2 mM EDTA, pH-7.4), 4 μl of donor particle, 4 μl of acceptor particle, rCETP (50 ng) and 2 μl of test compound at varying final concentration of 0.1, 1, 10, 100, 1000 & 10000 nM. Two control reactions were performed, one without test compound (positive control) and the other without the rCETP (negative control). The reactions were incubated at 37° C. for 90 minutes and the reaction plate was transferred to a PCR machine MX3005P and the fluorescence units (FLU) were quantified (Excitation: 492 nm; Emission: 516 nm).
The negative control values were subtracted from the positive control as well as all the test values to correct for background fluorescence. The percentage inhibition of activity was calculated by using the following equation: % Inhibition of CETP activity=[100−(100×(FLU in test/FLU in positive control))].
The half maximal inhibitory concentration (IC50) was determined using the BIOGRAPH software (version no. 3.3).

Compound | pIC50
Cc1nn(C(C)(C)C)c2nc(N(CC3CC3)CC3CC3)c(CN(Cc3cc(C(F)(F)F)cc(C(F)(F)F)c3)c3ncc(NC(=O)C(C)C)cn3)cc12 [Example 1, N-(2-(((6-(bis(cyclopropylmethyl)amino)-1-(tert-butyl)-3-methyl-1H-pyrazolo[3,4-b]pyridin-5-yl)methyl)(3,5-bis(trifluoromethyl)benzyl)amino)pyrimidin-5-yl) isobutyramide] | 7.19
Cc1nn(C(C)(C)C)c2nc(N(CC3CC3)CC3CC3)c(CN(Cc3cc(C(F)(F)F)cc(C(F)(F)F)c3)c3ccc(C4CC4)cn3)cc12 [Example 2, 5-(((3,5-Bis(trifluoromethyl)benzyl)(5-cyclopropylpyridin-2-yl)amino)methyl)-1-(tert-butyl)-N,N-bis(cyclopropylmethyl)-3-methyl-1H-pyrazolo[3,4-b]pyridin-6-amine] | 7.11
Cc1nn(C(C)(C)C)c2nc(N(CC3CC3)CC3CC3)c(CN(Cc3cc(C(F)(F)F)cc(C(F)(F)F)c3)c3ncc(NC(=O)C4CC4)cn3)cc12 [Example 3, N-(2-(((6-(bis(cyclopropylmethyl)amino)-1-(tert-butyl)-3-methyl-1H-pyrazolo[3,4-b]pyridin-5-yl)methyl)(3,5-bis(trifluoromethyl)benzyl)amino)pyrimidin-5-yl)cyclopropanecarboxamide] | 7.46
CC(=O)c1cnc(N(Cc2cc(C(F)(F)F)cc(C(F)(F)F)c2)Cc2cc3c(C)nn(C)c3nc2N(CC2CC2)CC2CC2)nc1 [Example 4, 1-(2-(((6-(bis(cyclopropylmethyl)amino)-1,3-dimethyl-1H-pyrazolo[3,4-b]pyridin-5-yl)methyl)(3,5-bis(trifluoromethyl)benzyl)amino)pyrimidin-5-yl)ethanone] | 8.24
CC(=O)c1cnc(N(Cc2cc(C(F)(F)F)cc(C(F)(F)F)c2)Cc2cc3c(C)nn(C(C)(C)C)c3nc2N(CC2CC2)CC2CC2)nc1 [Example 5, 1-(2-(((6-(bis(cyclopropylmethyl)amino)-1-(tert-butyl)-3-methyl-1H-pyrazolo[3,4-b]pyridin-5-yl)methyl)(3,5-bis(trifluoromethyl)benzyl)amino)pyrimidin-5-yl)ethanone] | 7.38
Cc1nn(C(C)(C)C)c2nc(N(CC3CC3)CC3CC3)c(CN(Cc3cc(C(F)(F)F)cc(C(F)(F)F)c3)c3ncc(-c4ccon4)cn3)cc12 [Example 7] | 8.03
Cc1nn(C(C)(C)C)c2nc(N(CC3CC3)CC3CC3)c(CN(Cc3cc(C(F)(F)F)cc(C(F)(F)F)c3)c3ncc(-c4cc[nH]n4)cn3)cc12 [Example 8, 5-(((5-(1H-pyrazol-3-yl)pyrimidin-2-yl)(3,5-bis(trifluoromethyl)benzyl)amino)methyl)-1-(tert-butyl)-N,N-bis(cyclopropylmethyl)-3-methyl-1H-pyrazolo[3,4-b]pyridin-6-amine] | 7.57
Cc1nn(C(C)(C)C)c2nc(N(CC3CC3)CC3CC3)c(CN(Cc3cc(C(F)(F)F)cc(C(F)(F)F)c3)c3ncc(-c4ccn(C)n4)cn3)cc12 [Example 9, 5-(((3,5-Bis(trifluoromethyl)benzyl)(5-(1-methyl-1H-pyrazol-3-yl)pyrimidin-2-yl)amino)methyl)-1-(tert-butyl)-N,N-bis(cyclopropylmethyl)-3-methyl-1H-pyrazolo[3,4-b]pyridin-6-amine] | 7.00
Cc1nn(C(C)(C)C)c2nc(N(CC3CC3)CC3CC3)c(CN(Cc3cc(C(F)(F)F)cc(C(F)(F)F)c3)c3ncc(C#N)cn3)cc12 [Example 10, 2-(((6-(bis(cyclopropylmethyl)amino)-1-(tert-butyl)-3-methyl-1H-pyrazolo[3,4-b]pyridin-5-yl)methyl)(3,5-bis(trifluoromethyl)benzyl)amino)pyrimidine-5-carbonitrile] | 5.90
Cc1nn(C(C)(C)C)c2nc(N(CC3CC3)CC3CC3)c(CN(Cc3cc(C(F)(F)F)cc(C(F)(F)F)c3)c3ncc(C(N)=O)cn3)cc12 [Example 11, 2-(((6-(bis(cyclopropylmethyl)amino)-1-(tert-butyl)-3-methyl-1H-pyrazolo[3,4-b]pyridin-5-yl)methyl)(3,5-bis(trifluoromethyl)benzyl)amino)pyrimidine-5-carboxamide] | 7.74
Cc1nn(C(C)(C)C)c2nc(N(CC3CC3)CC3CC3)c(CN(Cc3cc(C(F)(F)F)cc(C(F)(F)F)c3)c3ncc(C(=O)N(C)C)cn3)cc12 [Example 12, 2-(((6-(bis(cyclopropylmethyl)amino)-1-(tert-butyl)-3-methyl-1H-pyrazolo[3,4-b]pyridin-5-yl)methyl)(3,5-bis(trifluoromethyl)benzyl)amino)-N,N-dimethylpyrimidine-5-carboxamide] | 6.67
Cc1nn(C(C)(C)C)c2nc(N(CC3CC3)CC3CC3)c(CN(Cc3cc(C(F)(F)F)cc(C(F)(F)F)c3)c3ncc(N4CCOC4=O)cn3)cc12 [Example 13, 3-(2-(((6-(bis(cyclopropylmethyl)amino)-1-(tert-butyl)-3-methyl-1H-pyrazolo[3,4-b]pyridin-5-yl)methyl)(3,5-bis(trifluoromethyl)benzyl)amino)pyrimidin-5-yl)oxazolidin-2-one] | 8.00
Cc1nn(C(C)(C)C)c2nc(N(CC3CC3)CC3CC3)c(CN(Cc3cc(C(F)(F)F)cc(C(F)(F)F)c3)c3ncc(N4CCOCC4)cn3)cc12 [Example 14, 5-(((3,5-Bis(trifluoromethyl)benzyl)(5-morpholinopyrimidin-2-yl)amino)methyl)-1-(tert-butyl)-N,N-bis(cyclopropylmethyl)-3-methyl-1H-pyrazolo[3,4-b]pyridin-6-amine] | 7.34
Cc1nn(C)c2nc(N(CC3CC3)CC3CC3)c(CN(Cc3cc(C(F)(F)F)cc(C(F)(F)F)c3)c3ncc(N4CCOCC4)cn3)cc12 [Example 15, 5-(((3,5-bis(trifluoromethyl)benzyl)(5-morpholinopyrimidin-2-yl)amino)methyl)-N,N-bis(cyclopropylmethyl)-1,3-dimethyl-1H-pyrazolo[3,4-b]pyridin-6-amine] | 7.31
Cc1nn(C(C)(C)C)c2nc(N(CC3CC3)CC3CC3)c(CN(Cc3cc(C(F)(F)F)cc(C(F)(F)F)c3)c3ncc(N4CCCC4=O)cn3)cc12 [Example 16, 1-(2-(((6-(Bis(cyclopropylmethyl)amino)-1-(tert-butyl)-3-methyl-1H-pyrazolo[3,4-b]pyridin-5-yl)methyl)(3,5-bis(trifluoromethyl)benzyl)amino)pyrimidin-5-yl)pyrrolidin-2-one] | 7.25
Cc1nc(N(Cc2cc(C(F)(F)F)cc(C(F)(F)F)c2)Cc2cc3c(C)nn(C(C)(C)C)c3nc2N(CC2CC2)CC2CC2)ncc1C(=O)O [Example 18, 2-(((6-(Bis(cyclopropylmethyl)amino)-1-(tert-butyl)-3-methyl-1H-pyrazolo[3,4-b]pyridin-5-yl)methyl)(3,5-bis(trifluoromethyl)benzyl)amino)-4-methylpyrimidine-5-carboxylic acid] | 7.27
CCOC(=O)c1cnc(N(Cc2cc(C(F)(F)F)cc(C(F)(F)F)c2)Cc2cc3c(C)nn(C(C)(C)C)c3nc2N(CC2CC2)CC2CC2)nc1 [Example 19, Ethyl 2-(((6-(bis(cyclopropylmethyl)amino)-1-(tert-butyl)-3-methyl-1H-pyrazolo[3,4-b]pyridin-5-yl)methyl)(3,5-bis(trifluoromethyl)benzyl)amino)pyrimidine-5-carboxylate] | 7.15
Cc1nn(C(C)(C)C)c2nc(N(CC3CC3)CC3CC3)c(CN(Cc3cc(C(F)(F)F)cc(C(F)(F)F)c3)c3ncc(C(=O)O)cn3)cc12 [Example 20, 2-(((6-(Bis(cyclopropylmethyl)amino)-1-(tert-butyl)-3-methyl-1H-pyrazolo[3,4-b]pyridin-5-yl)methyl)(3,5-bis(trifluoromethyl)benzyl)amino)pyrimidine-5-carboxylic acid] | 7.21
